test system: not given; assay: not given; conditions: not given

| melting point | SMILES |
| --- | --- |
| 182 to 183 °C (dec.) | COCc1cn2c(C)c(C)nc2c2c1[C@H](O)[C@H](O)[C@@H](c1ccccc1)N2 [Example 15, (7S,8R,9R)-7,8-Dihydroxy-6-methoxymethyl-2,3-dimethyl-9-phenyl-7,8,9,10-tetrahydroimidazo[1,2-h][1,7]naphthyridine] |
| 158 to 160 °C | COCCO[C@@H]1c2c(COC)cn3c(C)c(C)nc3c2N[C@H](c2ccccc2)[C@H]1O [Example 19, (7R,8R,9R)-8-Hydroxy-7-(2-methoxyethoxy)-6-methoxymethyl-2,3-dimethyl-9-phenyl-7,8,9,10-tetrahydroimidazo[1,2-h][1,7]naphthyridine] |
| 184 to 186 °C (dec.) | CCO[C@@H]1c2c(COC)cn3c(C)c(C)nc3c2N[C@H](c2ccccc2)[C@H]1O [Example 21, (7R,8R,9R)-8-Hydroxy-7-ethoxy-6-methoxymethyl-2,3-dimethyl-9-phenyl-7,8,9,10-tetrahydroimidazo[1,2-h][1,7]naphthyridine] |

Continued, compound first:

| SMILES | melting point |
| --- | --- |
| COCc1cn2c(C)c(C)nc2c2c1[C@H](OC)[C@H](O)[C@@H](c1ccccc1)N2 [Example 17, (7S,8R,9R)-8-Hydroxy-7-methoxy-6-methoxymethyl-2,3-dimethyl-9-phenyl-7,8,9,10-tetrahydroimidazo[1,2-h][1,7]naphthyridine] | 126 to 129 °C (dec.) |
| COCCO[C@H]1c2c(COC)cn3c(C)c(C)nc3c2N[C@H](c2ccccc2)[C@H]1O [Example 20, (7S,8R,9R)-8-Hydroxy-7-(2-methoxyethoxy)-6-methoxymethyl-2,3-dimethyl-9-phenyl-7,8,9,10-tetrahydroimidazo[1,2-h][1,7]naphthyridine] | 158 to 160 °C (dec.) |
| CCO[C@H]1c2c(COC)cn3c(C)c(C)nc3c2N[C@H](c2ccccc2)[C@H]1O [Example 22, (7S,8R,9R)-8-Hydroxy-7-ethoxy-6-methoxymethyl-2,3-dimethyl-9-phenyl-7,8,9,10-tetrahydroimidazo[1,2-h][1,7]naphthyridine] | 163 to 164 °C (dec.) |

test system: pentagastrin-stimulated acid secretion of the perfused rat stomach; assay: Secretion-inhibiting action on the perfused rat stomach (pentagastrin-stimulated acid secretion, i.v. administration in vivo); conditions: anesthetized CD rat, dose 3 μmol/kg i.v.
Source text: Testing of the Secretion-inhibiting Action on the Perfused Rat Stomach
In Table A which follows, the influence of the compounds according to the invention on the pentagastrin-stimulated acid secretion of the perfused rat stomach after intravenous administration in vivo is shown.
The abdomen of anesthetized rats (CD rat, female, 200-250 g; 1.5 g/kg i.m. urethane) was opened after tracheotomy by a median upper abdominal incision and a PVC catheter was fixed transorally in the esophagus and another via the pylorus such that the ends of the tube just projected into the gastric lumen. The catheter leading from the pylorus led outward into the right abdominal wall through a side opening.
After thorough rinsing (about 50-100 ml), warm (37° C.) physiological NaCl solution was continuously passed through the stomach (0.5 ml/min, pH 6.8-6.9; Braun-Unita 1). The pH (pH meter 632, glass electrode EA 147; φ=5 mm, Metrohm) and, by titration with a freshly prepared 0.01N NaOH solution to pH 7 (Dosimat 665 Metrohm), the secreted HCl were determined in the effluent in each case collected at an interval of 15 minutes.
The gastric secretion was stimulated by continuous infusion of […] (=1.65 ml/h) of i.v. pentagastrin (left femoral vein) about 30 min after the end of the operation (i.e. after determination of 2 preliminary fractions). […]

| SMILES | Inhibition of acid secretion |
| --- | --- |
| COCc1cn2c(C)c(C)nc2c2c1[C@H](OC)[C@H](O)[C@@H](c1ccccc1)N2 [Example 17, (7S,8R,9R)-8-Hydroxy-7-methoxy-6-methoxymethyl-2,3-dimethyl-9-phenyl-7,8,9,10-tetrahydroimidazo[1,2-h][1,7]naphthyridine] | 100% |
